The values below come from PubChem BioAssay (NCI).

Each structure is given as a SMILES string.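 Compound exposure: 48 hours, 5 concentrations, 96-well plates. TGI marks complete inhibition of growth.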

Among the test systems are 786-0 renal; A498 renal; HS 578T breast; HT29 colon; MCF7 breast; MOLT-4 leukemia; SF-539 CNS; SK-OV-3 ovarian; SR leukemia; T-47D breast.
Common to all, as to assay: NCI anticancer screen, dose series, 48 h

With `COc1cc2c(/C=C3/C(=O)Nc4ccccc43)c(Cl)[nH]c2cc1C`, the TGI in the assay with 786-0 renal was 13.9 µM; with A498 renal, 19.8 µM; in the assay on HS 578T breast, above 100 µM; in the assay with HT29 colon it was 1.05 µM; in the assay with MCF7 breast, 16.6 µM; in the assay with MOLT-4 leukemia, 14.2 µM. The TGI came to 0.225 µM with SF-539 CNS, 0.141 µM in the assay with SK-OV-3 ovarian, 10.1 µM in the assay with SR leukemia and 41.1 µM in the assay with T-47D breast.

`O=C(CSc1n[nH]c(=O)[nH]c1=O)NNC(=O)c1cccc2nc3ccccc3nc12`: the TGI in the assay with 786-0 renal, in the assay on A498 renal, with HS 578T breast, in the assay on HT29 colon, in the assay with MCF7 breast and with MOLT-4 leukemia was above 100 µM in each case. Further, the TGI in the assay on SF-539 CNS, in the assay with SK-OV-3 ovarian, in the assay with SR leukemia and in the assay with T-47D breast was above 100 µM in each case.

Turning to `CCC(=O)Oc1c2ccsc2c(OC(=O)CC)c2ccsc12`, the TGI with 786-0 renal was 4.33 µM; in the assay on A498 renal, 15 µM; in the assay on HS 578T breast, 1.2 µM; with HT29 colon it was 5.56 µM; in the assay on MCF7 breast it was 3.43 µM; with MOLT-4 leukemia it was above 100 µM. For the same compound, the TGI in the assay on SF-539 CNS is 0.472 µM; in the assay on SK-OV-3 ovarian, 15.8 µM; in the assay on SR leukemia, 0.806 µM; in the assay on T-47D breast, 3.88 µM.

For `O=[N+]([O-])c1ccc(NC(=S)N=Nc2c(O)[nH]c3ccc(Br)cc23)cc1`, the TGI in the assay with 786-0 renal was 21.8 µM; in the assay on A498 renal it was 17.2 µM; in the assay on HS 578T breast, 39.6 µM; with HT29 colon, 24.9 µM; with MCF7 breast, 22 µM; with MOLT-4 leukemia, above 100 µM. For the same compound, the TGI with SF-539 CNS was found to be 82.9 µM; in the assay with SK-OV-3 ovarian, 28.9 µM; in the assay with SR leukemia it was 42.7 µM; in the assay on T-47D breast, 37.8 µM.

For the compound `CC1(C)CNC(=O)C2(C=NC(C)(C)CNC(=O)C3(C=N1)CCCO3)CCCO2` (stereo unspecified), the TGI in the assay with 786-0 renal, in the assay on A498 renal, with HS 578T breast, in the assay on HT29 colon, with MCF7 breast and in the assay with MOLT-4 leukemia was above 10 µM throughout. In addition, the TGI with SF-539 CNS, with SK-OV-3 ovarian, with SR leukemia and with T-47D breast was above 10 µM in each case.

For `Nc1ccc(S(=O)(=O)Nc2nc3ccccc3nc2N2CCCCC2)cc1`, the TGI in the assay with 786-0 renal, with HS 578T breast, in the assay with HT29 colon, in the assay on MCF7 breast, in the assay on MOLT-4 leukemia and in the assay on SF-539 CNS was above 100 µM in each case. The TGI in the assay with SK-OV-3 ovarian, in the assay with SR leukemia and with T-47D breast was above 100 µM each time.

As to `NC(=O)c1cc2ccccc2o/c1=N/O`, the TGI was above 100 µM in the assay on 786-0 renal; 91.6 µM in the assay with HS 578T breast; above 100 µM with HT29 colon; above 100 µM with MCF7 breast; above 100 µM in the assay on MOLT-4 leukemia; above 100 µM with SF-539 CNS. Besides, the TGI with SK-OV-3 ovarian, with SR leukemia and in the assay with T-47D breast was above 100 µM throughout.

As to `COc1c(C)c2nc3ccccc3[nH]c2c2c(=O)ccnc12`, the TGI with 786-0 renal is above 100 µM; with A498 renal it was above 100 µM; with HS 578T breast it was 78.7 µM; in the assay on HT29 colon, above 100 µM; with MCF7 breast, above 100 µM; with MOLT-4 leukemia, above 100 µM. For the same compound, the TGI with SF-539 CNS, with SK-OV-3 ovarian, in the assay on SR leukemia and in the assay with T-47D breast was above 100 µM each time.

With `CC1(C)C=C(S(=O)(=O)c2ccccc2)Oc2ccccc2O1`, the TGI is above 100 µM with 786-0 renal; above 100 µM in the assay on A498 renal; above 100 µM with HS 578T breast; above 100 µM in the assay with HT29 colon; above 100 µM in the assay on MCF7 breast; 71.9 µM in the assay on MOLT-4 leukemia. Moreover, the TGI with SF-539 CNS was above 100 µM; with SK-OV-3 ovarian, above 100 µM; in the assay on SR leukemia it was above 100 µM; in the assay with T-47D breast it was 96.4 µM.

Regarding `c1ccc(/C(=N/Nc2ccccn2)c2ncccn2)cc1`, the TGI was above 100 µM with 786-0 renal; above 100 µM in the assay with A498 renal; above 44.9 µM in the assay with HS 578T breast; above 47.4 µM in the assay on HT29 colon; above 100 µM in the assay on MCF7 breast; 46 µM with SF-539 CNS. Moreover, the TGI in the assay with SK-OV-3 ovarian is above 28.7 µM; with SR leukemia it was above 27.5 µM; with T-47D breast, above 100 µM.

For `Brc1ccc2c(-c3csc(-c4c[nH]c5ccc(Br)cc45)n3)c[nH]c2c1`, the TGI in the assay on 786-0 renal was 4.71 µM; in the assay with A498 renal it was 8.42 µM; with HS 578T breast, above 51.3 µM; in the assay with HT29 colon, 3.35 µM; with MCF7 breast, above 100 µM; in the assay with MOLT-4 leukemia it was above 22.4 µM. The TGI in the assay on SF-539 CNS was 15.1 µM; with SK-OV-3 ovarian, 24.2 µM; in the assay with SR leukemia, above 100 µM; with T-47D breast, 21.3 µM.

Turning to `COc1ccc2c(c1)CN1C(=N2)CSC1c1ccccc1Cl` (stereo unspecified), the TGI with 786-0 renal was 34.5 µM; in the assay with HS 578T breast, 82.5 µM; in the assay with HT29 colon it was 32.8 µM; with MCF7 breast it was above 100 µM; with MOLT-4 leukemia it was 19 µM; with SF-539 CNS it was 32.1 µM. For the same compound, the TGI in the assay with SK-OV-3 ovarian is 79.2 µM; in the assay on SR leukemia, 27 µM; in the assay on T-47D breast it was above 100 µM.

Take `CCCCc1ccc(Nc2nc3c(ncn3COCCO)c(=O)[nH]2)cc1`: the TGI with 786-0 renal, with A498 renal, in the assay with HS 578T breast, in the assay with HT29 colon, in the assay with MCF7 breast and in the assay with MOLT-4 leukemia was above 100 µM each time. Moreover, the TGI with SF-539 CNS, in the assay on SK-OV-3 ovarian, in the assay with SR leukemia and in the assay with T-47D breast was above 100 µM in each case.

As for `COc1cc(I)c2c3c1OC1C34CCN(C)C(C2)C4=CC(I)C1(OC)OC` (stereo unspecified), the TGI with 786-0 renal was 43.7 µM; in the assay on A498 renal, 86.4 µM; in the assay with HS 578T breast, above 100 µM; with HT29 colon, 83.6 µM; with MCF7 breast it was 64.3 µM; in the assay with MOLT-4 leukemia, 42.4 µM. The TGI was 40.1 µM with SF-539 CNS, 68 µM in the assay with SK-OV-3 ovarian, 40.9 µM with SR leukemia and 31.1 µM in the assay on T-47D breast.
